Data as given in US5646188A, “Polyamine derivatives of 1-aminoindan” (priority 1995, dated 1997).
Where two headings read alike, the source gives them in different places.

Experiments:
[1] = test system: Cultures of Dissociated Neonatal Rat Cerebellum; experiment: Reversal of NMDA Induced Cell Death in cultures of dissociated neonatal rat cerebellum; assay type: cell-based; conditions: for PERCENT PROTECTION: cell survival minus the NMDA effect (30%); for viability at 0.005 µM: 0.005 μM + NMDA (1 mM, 3 hours); for viability at 0.1 µM: 0.100 μM + NMDA (1 mM, 3 hours); for viability at 1 µM: 1.000 μM + NMDA (1 mM, 3 hours)
Protocol: (§1) The cerebellum was aseptically dissociated from 6 or 7-day old rat pups and placed in a 15 ml sterile plastic conical tube containing 3 ml of Dulbecco's modified Eagle's medium (DMEM) with a high glucose concentration ([…]) and 2 mM (v/v) L-glutamine and an antibiotic antimitotic mixture. The cerebella were then dissociated after 20-25 passages through a sterile 13 gauge, 10 cm long stainless steel needle attached to a 5 ml syringe with an inserted 45 micrometer pore nylon sieve. The dissociated cells were centrifuged at 200 g for 5 minutes.
Cells were plated at a density of 200/mm^2 on poly-L-lysine coated surfaces. […] The plated cells were covered with enriched medium and incubated at 37° C. in an atmosphere of 5% CO2 in air and 97% humidity. […] Each test compound was tested in duplicate. Toxic-dose response was determined for each compound over a range from 0.005-1000 micromole. Four groups were run in each set of experiments;
I. Control, consisting of enriched media alone,
II. N-methyl-D-aspartate (NMDA, 1 mM for 3 hours) as the cytotoxic challenge,
III. Test compound plus NMDA, and
IV. Positive control, spermine, spermidine or putrescine (0.01 micromoles) plus NMDA.
Surviving cells in Culture are measured relative to control (100%) as described above. Percent protection is the Cell Survival for the test compound minus the NMDA effect. […] The Effective Protection was calculated as the percent of the Percent Protection (X) divided by the maximal protection value (e.g. X×100/70).

in vitro = conditions: rat, cerebellum cell culture
Protocol: as §1, with “minutes. […] Cell viability was determined by the tryptan blue exclusion test.” for “minutes.”
Cells were plated at a density of 200/mm^2 on poly-L-lysine coated surfaces. Poly-L-lysine coated glass coverslips were prepared at least one hour in advance of plating by immersing sterile coverslips in sterile distilled water solution containing 15 microgram/ml poly-L-lysine, and washing in sterile water just prior. to use. […] After three days in culture, the media was replaced with media containing the desired test compound. Each test compound was tested in duplicate. Toxic-dose response was determined for each compound over a range from 0.005-1000 micromole. Four groups were run in each set of experiments;
Nerve cell survival was evaluated by phase contrast microscopy and tryptan blue staining after 24 hours.
Toxic dose-response curves were compiled using the protocol described above.

[2] = test system: pyramidal neurons throughout the CA1 layer of the anterior hippocampus; experiment: Global Brain Ischemia In Gerbils; assay type: in vivo, mongolian gerbils; conditions: Meriones unguiculatus, Pyramidal neuron, ip, 336 h, read-out: PERCENT PROTECTION
Protocol: Male mongolian gerbils, aged 2.5-5 months, housed 4-8 in a cage, were supplied freely with food and water and maintained at 24° C. with a 12 hour day/night cycle.
For surgery the animals were anesthetized with halothane (1.5% in 100% O2) and the common carotid arteries exposed bilaterally through a midline ventral neck incision. Each artery was clamped for 5 minutes with aneurysm clips to produce global brain ischemia. The anesthesia was discontinued upon clamping. After 5 minutes the clamps were removed and the wound closed with skin clips.
For treatment, the test compound or vehicle was injected intra-peritoneally(ip) in a volume of 50 microlitres of solvent per 10 g body weight. The first injection was given two minutes after clamp removal, and thereafter daily for the next 2 post-operative days (total of 3 injections).
Seven groups each of 4-8 animals were compared:
I. Control; (sham- or unoperated and saline treated),
II. Vehicle treated, unoperated (when solvent is other than saline),
III. Ischemia--untreated or saline treated),
IV. Ischemia--vehicle treated (when solvent is other than saline),
V. Ischemia--Test compound treated, one sub-group per concentration tested,
VI. Ischemia and pentobarbital (40 mg/kg) as positive control).
Analysis of neuronal damage was performed 14 days post-ischemia by counting pyramidal neurons throughout the CA1 layer of the anterior hippocampus in […] thick (paraffin) coronal brain sections stained with hematoxylin and erosin.
Percent Protection values represent the fraction of hippocampi protected from ischemia in a group of animals treated with the stated dose of compound.

[3] = test system: ischemia induced nerve cell death; conditions: gerbils; Gilad G et al.; cited from earlier work
[4] = Rattus norvegicus, 24 hours, read-out: SURVIVING CELL IN CULTURE (relative to control, 100%)
[5] = Rattus norvegicus, 0.010 μM + NMDA (1 mM, 3 hours), 24 hours, read-out: SURVIVING CELL IN CULTURE (relative to control, 100%)
[6] = 1.0 mg/kg ip, 3 daily injections, 14 days post-ischemia, fraction of hippocampi protected
[7] = 10.0 mg/kg ip, 3 daily injections, 14 days post-ischemia, fraction of hippocampi protected

Row | SMILES | PERCENT PROTECTION ([1]; 0.005 μM + NMDA) | PERCENT PROTECTION ([1]; 0.010 μM + NMDA) | PERCENT PROTECTION ([1]; 0.100 μM + NMDA) | PERCENT PROTECTION ([1]; 1.000 μM + NMDA) | viability at 0.005 µM [1, 4] | viability at 0.01 µM [1, 5] | viability at 0.1 µM [1, 4] | viability at 1 µM [1, 4] | CC50 at 24 h (in vitro) | responders at 10 mg/kg [2, 7] | responders at 1 mg/kg [2] | also measured
1 | NCCCNC1CCc2ccccc21 (stereo not drawn) [Compound 2709, N-(3-aminopropyl)-1-aminoindan] | -4% | 23% | 29% | 13% | 26% | 53% | 59% | 43% | 50 µM | 31% |  | PERCENT PROTECTION ([1]; 10.00 μM + NMDA): 8%; viability at 10 µM ([1]; Rattus norvegicus, 10.00 μM + NMDA (1 mM, 3 hours), 24 hours, read-out: SURVIVING CELL IN CULTURE (relative to control, 100%)): 38%; responders at 1 mg/kg [2, 6]: 12%
2 | N[C@@H]1C[C@H](N)c2ccccc21 [Compound 2715, cis 1,3-diaminoindan] | 19% |  | 12% | 2% | 49% |  | 42% | 32% | 10 µM | 50% | 75% | 
3 | NCCCCN(CCCCN)[C@@H]1CCc2ccccc21 [Compound 2726, (R)-N,N-di(4-amino-n-butyl)-1-aminoindan] | 99% | 25% |  |  | 129% | 55% |  |  | 1.7 µM | 50% |  | 
4 | N[C@H]1CCc2ccccc21 [(S)-1-aminoindan, reference compound] |  |  |  |  |  |  |  |  |  |  | 50% | responders at 0.1 mg/kg [2]: 0%; responders at 10 mg/kg [2]: 75%
5 | NCCCCNCCCN [Spermidine, spermidine, reference compound] |  |  |  |  |  |  |  |  | 2 µM | 42% |  | viability at 0.01 µM ([1]; Rattus norvegicus, positive control, 0.01 micromoles + NMDA (1 mM, 3 hours), 24 hours, read-out: SURVIVING CELL IN CULTURE (relative to control, 100%)): 78%; PERCENT PROTECTION ([1]; positive control, 0.01 micromoles + NMDA): 48%; protecting against ischemia induced nerve cell death [3]: activity
6 | NCCCCN(CCCCN)C1CCCc2ccccc21 (stereo not drawn) [Compound 2728, N,N-di(4-amino-n-butyl)-1-amino-1,2,3,4-tetrahydronaphthalene] | -10% | 56% |  |  | 20% | 86% |  |  | 0.25 µM |  | 20% | 
7 | NCCCCN(CCCCN)[C@H]1CCc2ccccc21 [Compound 2727, (S)-N,N-di(4-amino-n-butyl)-1-aminoindan] | 0% | 25% |  |  | 30% | 55% |  |  | 0.4 µM | 28.5% |  | 
8 | N[C@@H]1C[C@@H](N)c2ccccc21 (relative stereo) [Compound 2716, trans 1,3-diaminoindan] | 35% | 0% | -5% | 0% | 65% | 30% | 25% | 30% | 0.7 µM | 0% |  | responders at 1 mg/kg [2, 6]: 50%
9 | CCCC(C)C1(CC)C(=O)NC(=O)NC1=O (stereo not drawn) [Pentobarbital, pentobarbital, reference compound] |  |  |  |  |  |  |  |  |  |  |  | responders at 40 mg/kg [2]: 87.5%
